The test is described as follows: Inhibition of [3H]thymidine uptake by Dopamine receptor D2.

`c1ccc(N2CCN(CC[C@H]3CC[C@H](c4c[nH]c5ccccc54)CC3)CC2)nc1` [3-{4-[2-(4-Pyridin-2-yl-piperazin-1-yl)-ethyl]-cyclohexyl}-1H-indole] had an EC50 of 2.8 nM.
